Measured values from PubChem BioAssay AID2060493 (Molecular Pharmacology Branch, DTP, NCI, 2025).

System: 616215-338-R-J1-PDC tumor spheroids, viability
Assay: Anticancer human tumor 616215-338-R-J1-PDC patient-derived colon adenocarcinoma cell line growth inhibition [GQUAD]
Settings: spheroids with HUVEC and MSC; for IC50: curve of first compound; for viability, T/C: stronger effect = lower value
Summary of the method: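 Viability of tumor cells grown as complex spheroids with endothelial and stromal cells, exposed to drug combinations. Top concentration at or near clinical Cmax (else 10 microM), diluted in half-log increments.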

[1] = second compound 0.0316 µM, first compound 0.000999 µM
[2] = second compound 0.0316 µM, first compound 0.00316 µM
[3] = second compound 0.0316 µM, first compound 0.00999 µM
[4] = second compound 0.0316 µM, first compound 0.0316 µM
[5] = second compound 0.0316 µM, first compound 0.0999 µM
[6] = second compound 0.0316 µM, first compound 0.316 µM
[7] = second compound 0.1 µM, first compound 0.000999 µM
[8] = second compound 0.1 µM, first compound 0.00316 µM
[9] = second compound 0.1 µM, first compound 0.00999 µM
[10] = second compound 0.1 µM, first compound 0.0316 µM
[11] = second compound 0.1 µM, first compound 0.0999 µM
[12] = second compound 0.1 µM, first compound 0.316 µM
[13] = second compound 0.316 µM, first compound 0.000999 µM
[14] = second compound 0.316 µM, first compound 0.00316 µM
[15] = second compound 0.316 µM, first compound 0.00999 µM
[16] = second compound 0.316 µM, first compound 0.0316 µM
[17] = second compound 0.316 µM, first compound 0.0999 µM
[18] = second compound 0.316 µM, first compound 0.316 µM
[19] = second compound 1 µM, first compound 0.000999 µM
[20] = second compound 1 µM, first compound 0.00316 µM
[21] = second compound 1 µM, first compound 0.00999 µM
[22] = second compound 1 µM, first compound 0.0316 µM
[23] = second compound 1 µM, first compound 0.0999 µM
[24] = second compound 1 µM, first compound 0.316 µM
[25] = second compound 3.16 µM, first compound 0.000999 µM
[26] = second compound 3.16 µM, first compound 0.00316 µM
[27] = second compound 3.16 µM, first compound 0.00999 µM
[28] = second compound 3.16 µM, first compound 0.0316 µM
[29] = second compound 3.16 µM, first compound 0.0999 µM
[30] = second compound 3.16 µM, first compound 0.316 µM
[31] = second compound 10 µM, first compound 0.000999 µM
[32] = second compound 10 µM, first compound 0.00316 µM
[33] = second compound 10 µM, first compound 0.00999 µM
[34] = second compound 10 µM, first compound 0.0316 µM
[35] = second compound 10 µM, first compound 0.0999 µM
[36] = second compound 10 µM, first compound 0.316 µM
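Note: spheroids exposed to agents for 7 days before readout.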
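Throughout, for viability, T/C: percent viability relative to DMSO vehicle control wells taken as 100%.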

CC[C@@]1(O)C(=O)OCc2c1cc1n(c2=O)Cc2cc3c(CN(C)C)c(O)ccc3nc2-1 + CN(C)c1ccc(Nc2c3ccc(NC(=O)CCN4CCCC4)cc3nc3cc(NC(=O)CCN4CCCC4)ccc23)cc1
IC50 (second compound 0.0316 µM): 282 nM
IC50 (second compound 0.1 µM): 251 nM
IC50 (second compound 0.316 µM): 230 nM
IC50 (second compound 1 µM): 272 nM
IC50 (second compound 3.16 µM): 263 nM
IC50 (second compound 10 µM): 183 nM
viability, T/C [1]: 97.5%
viability, T/C [2]: 98.9%
viability, T/C [3]: 98%
viability, T/C [4]: 105%
viability, T/C [5]: 87.9%
viability, T/C [6]: 45.9%
viability, T/C [7]: 93.5%
viability, T/C [8]: 101%
viability, T/C [9]: 101%
viability, T/C [10]: 101%
viability, T/C [11]: 87.2%
viability, T/C [12]: 40.5%
viability, T/C [13]: 113%
viability, T/C [14]: 94.5%
viability, T/C [15]: 98.5%
viability, T/C [16]: 105%
viability, T/C [17]: 85.2%
viability, T/C [18]: 36.4%
viability, T/C [19]: 105%
viability, T/C [20]: 100%
viability, T/C [21]: 96.2%
viability, T/C [22]: 101%
viability, T/C [23]: 87.4%
viability, T/C [24]: 44.1%
viability, T/C [25]: 97.9%
viability, T/C [26]: 86.8%
viability, T/C [27]: 96.7%
viability, T/C [28]: 95.2%
viability, T/C [29]: 93.1%
viability, T/C [30]: 41.8%
viability, T/C [31]: 90.2%
viability, T/C [32]: 91%
viability, T/C [33]: 95.8%
viability, T/C [34]: 85.3%
viability, T/C [35]: 74.5%
viability, T/C [36]: 28.1%

CCc1c2c(nc3ccc(O)cc13)-c1cc3c(c(=O)n1C2)COC(=O)[C@]3(O)CC + CN(C)c1ccc(Nc2c3ccc(NC(=O)CCN4CCCC4)cc3nc3cc(NC(=O)CCN4CCCC4)ccc23)cc1
IC50 (second compound 0.0316 µM): 14.3 nM
IC50 (second compound 0.1 µM): 17.4 nM
IC50 (second compound 0.316 µM): 14.6 nM
IC50 (second compound 1 µM): 12.4 nM
IC50 (second compound 3.16 µM): 11.3 nM
IC50 (second compound 10 µM): 8.62 nM
viability, T/C [1]: 93.8%
viability, T/C [2]: 92.4%
viability, T/C [3]: 53.7%
viability, T/C [4]: 32.6%
viability, T/C [5]: 18.1%
viability, T/C [6]: 8.35%
viability, T/C [7]: 112%
viability, T/C [8]: 99.8%
viability, T/C [9]: 70.3%
viability, T/C [10]: 28.9%
viability, T/C [11]: 13.8%
viability, T/C [12]: 12.4%
viability, T/C [13]: 101%
viability, T/C [14]: 96.7%
viability, T/C [15]: 59.9%
viability, T/C [16]: 27%
viability, T/C [17]: 18%
viability, T/C [18]: 8.81%
viability, T/C [19]: 97.3%
viability, T/C [20]: 94.3%
viability, T/C [21]: 46.9%
viability, T/C [22]: 35%
viability, T/C [23]: 20.5%
viability, T/C [24]: 10.3%
viability, T/C [25]: 98.3%
viability, T/C [26]: 86.8%
viability, T/C [27]: 49.3%
viability, T/C [28]: 30.2%
viability, T/C [29]: 19.3%
viability, T/C [30]: 12.6%
viability, T/C [31]: 95.7%
viability, T/C [32]: 73.9%
viability, T/C [33]: 46%
viability, T/C [34]: 25.9%
viability, T/C [35]: 13.2%
viability, T/C [36]: 8.62%

COc1cc(C2c3cc4c(cc3C(OC3OC5COC(C)OC5C(O)C3O)C3COC(=O)C23)OCO4)cc(OC)c1O (stereo unspecified) + CN(C)c1ccc(Nc2c3ccc(NC(=O)CCN4CCCC4)cc3nc3cc(NC(=O)CCN4CCCC4)ccc23)cc1
IC50 (second compound 0.0316 µM): 967 nM
IC50 (second compound 0.1 µM): 655 nM
IC50 (second compound 0.316 µM): 693 nM
IC50 (second compound 1 µM): 762 nM
IC50 (second compound 3.16 µM): 644 nM
IC50 (second compound 10 µM): 491 nM
viability, T/C [4]: 99.3%
viability, T/C (second compound 0.0316 µM, first compound 0.1 µM): 103%
viability, T/C [6]: 67.8%
viability, T/C (second compound 0.0316 µM, first compound 1 µM): 51.9%
viability, T/C (second compound 0.0316 µM, first compound 3.16 µM): 31.9%
viability, T/C (second compound 0.0316 µM, first compound 10 µM): 20.7%
viability, T/C [10]: 94.7%
viability, T/C (second compound 0.1 µM, first compound 0.1 µM): 107%
viability, T/C [12]: 71.6%
viability, T/C (second compound 0.1 µM, first compound 1 µM): 37.5%
viability, T/C (second compound 0.1 µM, first compound 3.16 µM): 31%
viability, T/C (second compound 0.1 µM, first compound 10 µM): 18.7%
viability, T/C [16]: 100%
viability, T/C (second compound 0.316 µM, first compound 0.1 µM): 95.6%
viability, T/C [18]: 63.4%
viability, T/C (second compound 0.316 µM, first compound 1 µM): 41%
viability, T/C (second compound 0.316 µM, first compound 3.16 µM): 33.1%
viability, T/C (second compound 0.316 µM, first compound 10 µM): 16.6%
viability, T/C [22]: 100%
viability, T/C (second compound 1 µM, first compound 0.1 µM): 91.6%
viability, T/C [24]: 58.5%
viability, T/C (second compound 1 µM, first compound 1 µM): 44.6%
viability, T/C (second compound 1 µM, first compound 3.16 µM): 34.3%
viability, T/C (second compound 1 µM, first compound 10 µM): 14.2%
viability, T/C [28]: 96.4%
viability, T/C (second compound 3.16 µM, first compound 0.1 µM): 85%
viability, T/C [30]: 55.9%
viability, T/C (second compound 3.16 µM, first compound 1 µM): 43.6%
viability, T/C (second compound 3.16 µM, first compound 3.16 µM): 31.6%
viability, T/C (second compound 3.16 µM, first compound 10 µM): 15.9%
viability, T/C [34]: 97.2%
viability, T/C (second compound 10 µM, first compound 0.1 µM): 83.2%
viability, T/C [36]: 52.6%
viability, T/C (second compound 10 µM, first compound 1 µM): 40%
viability, T/C (second compound 10 µM, first compound 3.16 µM): 25.9%
viability, T/C (second compound 10 µM, first compound 10 µM): 15%
